Experimental data: PubChem BioAssay AID248 (DTP/NCI, 2004)
Several values for one entry are separate records, joined by “and”; a condition that tells them apart may be missing. Equal values may be shown once. Inconclusive results and toxic doses are left out. Rule as the data show it: active = T/C of 150% or more; inactive = T/C below 125%. Peptide text beside a SMILES is read from it. * marks the point of attachment. Trt = c1ccc(C(c2ccccc2)(c2ccccc2)*)cc1; Boc = CC(C)(C)OC(=O)*

System: L1210 leukemia ip in BDF1 mice, survival T/C
Experiment: NCI In Vivo Anticancer Drug Screen. Data for tumor model L1210 Leukemia (intraperitoneal) in B6D2F1 (BDF1) mice
Conditions: endpoint: mean survival time, higher = longer survival
Procedure, shortened: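 In this screen, tumor-bearing mice given compound are compared to those given vehicle, and their survival values are reported as a treated-to-control quotient.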

[1] = dose: 100.0 mg/kg/injection, schedule: Q04DX003 (ip), vehicle: saline with Tween-80
[2] = dose: 200.0 mg/kg/injection, schedule: Q04DX003 (ip), vehicle: saline with Tween-80
[3] = dose: 400.0 mg/kg/injection, schedule: Q04DX003 (ip), vehicle: saline with Tween-80
[4] = dose: 100.0 mg/kg/injection, schedule: Q01DX001 (ip), vehicle: Klucel (hydroxypropylcellulose) (HPC)
[5] = dose: 100.0 mg/kg/injection, schedule: Q04DX003 (ip), vehicle: Klucel (hydroxypropylcellulose) (HPC)
[6] = dose: 200.0 mg/kg/injection, schedule: Q01DX001 (ip), vehicle: Klucel (hydroxypropylcellulose) (HPC)
[7] = dose: 200.0 mg/kg/injection, schedule: Q04DX003 (ip), vehicle: Klucel (hydroxypropylcellulose) (HPC)
[8] = dose: 400.0 mg/kg/injection, schedule: Q01DX001 (ip), vehicle: Klucel (hydroxypropylcellulose) (HPC)
[9] = dose: 400.0 mg/kg/injection, schedule: Q04DX003 (ip), vehicle: Klucel (hydroxypropylcellulose) (HPC)
[10] = dose: 100.0 mg/kg/injection, schedule: Q01DX001 (ip), vehicle: saline
[11] = dose: 200.0 mg/kg/injection, schedule: Q01DX001 (ip), vehicle: saline
[12] = dose: 400.0 mg/kg/injection, schedule: Q01DX001 (ip), vehicle: saline
[13] = dose: 75.0 mg/kg/injection, schedule: Q01DX001 (ip), vehicle: other
[14] = dose: 150.0 mg/kg/injection, schedule: Q01DX001 (ip), vehicle: other
[15] = dose: 25.0 mg/kg/injection, schedule: Q04DX003 (ip), vehicle: saline with Tween-80
[16] = dose: 50.0 mg/kg/injection, schedule: Q04DX003 (ip), vehicle: saline with Tween-80

Measured: T/C

Cc1ccc(S(=O)(=O)N/N=C/C(C)(C)C(C)C)cc1
inactive: [1] 108 % of control | [2] 97 % of control | [3] 98 % of control

COc1ccc(NC(C)=O)cc1S(=O)(=O)F
inactive: [4] 93 % of control | [5] 102 % of control | [6] 88 % of control | [7] 104 % of control | [8] 93 % of control | [9] 96 % of control

NNC(=O)C(N)Cc1ccccc1 (configuration not stated)
inactive: [10] 101 % of control | [11] 105 % of control

COc1ccc(C=O)cc1Br
inactive: [5] 102 % of control | [7] 97 % of control | [9] 95 % of control

CCCCCCCCCCCCCCCC[N+](C)=C(SC)c1ccccc1OC
inactive: dose: 0.7 mg/kg/injection, schedule: Q01DX009 (ip), vehicle: Klucel (hydroxypropylcellulose) (HPC) 101 % of control | dose: 1.5 mg/kg/injection, schedule: Q01DX009 (ip), vehicle: Klucel (hydroxypropylcellulose) (HPC) 104 % of control | dose: 1.5 mg/kg/injection, schedule: Q04DX003 (ip), vehicle: Klucel (hydroxypropylcellulose) (HPC) 95 % of control | dose: 3.0 mg/kg/injection, schedule: Q01DX009 (ip), vehicle: Klucel (hydroxypropylcellulose) (HPC) 104 % of control | dose: 3.0 mg/kg/injection, schedule: Q04DX003 (ip), vehicle: Klucel (hydroxypropylcellulose) (HPC) 97 % of control

O=C(OCc1ccc([N+](=O)[O-])o1)c1ccc(Cl)cc1
inactive: [10] 97 % of control | [11] 101 % of control | [12] 92 % of control

CCOC(Nc1ccc([N+](=O)[O-])cc1)C(=O)c1ccccc1 (configuration not stated)
inactive: [10] 93 % of control | [11] 97 % of control | [12] 100 % of control

CCOc1ccc(NC(=O)COc2ccc(Cl)cc2)cc1
inactive: dose: 100.0 mg/kg/injection, schedule: Q01DX009 (ip), vehicle: Klucel (hydroxypropylcellulose) (HPC) 88 % of control | [5] 93 % of control | dose: 200.0 mg/kg/injection, schedule: Q01DX009 (ip), vehicle: Klucel (hydroxypropylcellulose) (HPC) 92 % of control | [7] 101 % of control | dose: 400.0 mg/kg/injection, schedule: Q01DX009 (ip), vehicle: Klucel (hydroxypropylcellulose) (HPC) 87 % of control | [9] 101 % of control

C(Cc1ccccc1)=Nc1ccc(N=CCc2ccccc2)cc1
inactive: [10] 103 % of control | [11] 112 % of control | [12] 110 % of control

CC(=O)NCCO
inactive: dose: 100.0 mg/kg/injection, schedule: Q01DX001 (ip), vehicle: saline with Tween-80 100 % of control | dose: 200.0 mg/kg/injection, schedule: Q01DX001 (ip), vehicle: saline with Tween-80 105 % of control | dose: 400.0 mg/kg/injection, schedule: Q01DX001 (ip), vehicle: saline with Tween-80 100 % of control

O=C(NC1CCCCC1)c1csnn1
inactive: [13] 89 % of control | [14] 97 % of control

O=C(c1ccc(Cl)cc1Cl)C(Cl)Cl
inactive: dose: 30.0 mg/kg/injection, schedule: Q01DX015 (ip), vehicle: saline 98 % of control | dose: 60.0 mg/kg/injection, schedule: Q01DX015 (ip), vehicle: saline 91 % of control | dose: 120.0 mg/kg/injection, schedule: Q01DX015 (ip), vehicle: saline 98 % of control

CC(C)(C)OC(=O)NCCCCC(NC(=O)CNC(=O)C(CSC(c1ccccc1)(c1ccccc1)c1ccccc1)NC(=O)OC(C)(C)C)C(=O)O (configuration not stated) (Boc-Cys(Trt)-Gly-Lys(Boc)-OH; configuration not given here)
inactive: [15] 96 % of control | [16] 98 % of control | [1] 94 % of control

CCC(C#N)C1=CCCCCC1 (configuration not stated)
inactive: dose: 12.5 mg/kg/injection, schedule: Q04DX003 (ip), vehicle: saline with Tween-80 103 % of control | dose: 25.0 mg/kg/injection, schedule: Q01DX009 (ip), vehicle: saline with Tween-80 97 % of control | [15] 97 % of control and 101 % of control | dose: 50.0 mg/kg/injection, schedule: Q01DX009 (ip), vehicle: saline with Tween-80 102 % of control | [16] 110 % of control | dose: 100.0 mg/kg/injection, schedule: Q01DX009 (ip), vehicle: saline with Tween-80 107 % of control | [1] 101 % of control

COc1ccccc1NCS(=O)(=O)O
inactive: [1] 98 % of control | [2] 102 % of control | [3] 100 % of control

CSc1ncc2c(=O)n(C)[nH]c2n1
inactive: [4] 93 % of control | [6] 92 % of control | [8] 90 % of control

COc1ccc(N2C(=O)CC(Cl)C2=O)cc1 (configuration not stated)
inactive: dose: 22.0 mg/kg/injection, schedule: Q04DX003 (ip), vehicle: Klucel (hydroxypropylcellulose) (HPC) 105 % of control | dose: 44.0 mg/kg/injection, schedule: Q04DX003 (ip), vehicle: Klucel (hydroxypropylcellulose) (HPC) 97 % of control | dose: 87.5 mg/kg/injection, schedule: Q04DX003 (ip), vehicle: saline with Tween-80 103 % of control | dose: 88.0 mg/kg/injection, schedule: Q04DX003 (ip), vehicle: Klucel (hydroxypropylcellulose) (HPC) 111 % of control

COc1ccc(OC)c2[nH]c(=O)c(-c3ccccc3)nc12
inactive: [1] 97 % of control | [2] 95 % of control | [3] 91 % of control

S=P1(c2ccccc2)Nc2cc3ccccc3cc2N1
inactive: [1] 97 % of control | [2] 100 % of control | [3] 96 % of control

CC1(c2ccccc2)NC(=O)NC1=O (configuration not stated)
inactive: [4] 92 % of control | [6] 95 % of control | [8] 95 % of control

CCC1(O)C(=O)OCc2c1cc(C)[nH]c2=O (configuration not stated)
inactive: dose: 6.25 mg/kg/injection, schedule: Q04DX003 (ip), vehicle: Klucel (hydroxypropylcellulose) (HPC) 86 % of control | dose: 12.5 mg/kg/injection, schedule: Q04DX003 (ip), vehicle: Klucel (hydroxypropylcellulose) (HPC) 94 % of control | dose: 25.0 mg/kg/injection, schedule: Q04DX003 (ip), vehicle: Klucel (hydroxypropylcellulose) (HPC) 86 % of control | dose: 50.0 mg/kg/injection, schedule: Q04DX003 (ip), vehicle: Klucel (hydroxypropylcellulose) (HPC) 89 % of control | [5] 91 % of control | [7] 86 % of control

CC1CC([O-])=N/[N+]1=C/c1ccc(N(C)C)cc1 (configuration not stated)
inactive: dose: 80.0 mg/kg/injection, schedule: Q01DX001 (ip), vehicle: saline with Tween-80 98 % of control | dose: 160.0 mg/kg/injection, schedule: Q01DX001 (ip), vehicle: saline with Tween-80 98 % of control | dose: 320.0 mg/kg/injection, schedule: Q01DX001 (ip), vehicle: saline with Tween-80 92 % of control

CCN(CC#N)c1ccc(Nc2cc(Cl)ccc2Cl)cc1
inactive: [13] 107 % of control | [14] 96 % of control | dose: 300.0 mg/kg/injection, schedule: Q01DX001 (ip), vehicle: other 100 % of control

Cc1ccc(Nc2nc(N)nc(N)c2N=O)cc1
inactive: dose: 25.0 mg/kg/injection, schedule: Q01DX Z (ip), vehicle: methylcellulose (MC) 101 % of control | dose: 50.0 mg/kg/injection, schedule: Q01DX Z (ip), vehicle: methylcellulose (MC) 90 % of control

NCCCOc1ccc([N+](=O)[O-])cc1Cl
inactive: dose: 50.0 mg/kg/injection, schedule: Q01DX009 (ip), vehicle: saline 106 % of control | dose: 75.0 mg/kg/injection, schedule: Q01DX001 (ip), vehicle: saline 98 % of control | dose: 100.0 mg/kg/injection, schedule: Q01DX009 (ip), vehicle: saline 110 % of control | dose: 100.0 mg/kg/injection, schedule: Q04DX003 (ip), vehicle: saline 111 % of control | dose: 150.0 mg/kg/injection, schedule: Q01DX001 (ip), vehicle: saline 98 % of control | dose: 200.0 mg/kg/injection, schedule: Q01DX009 (ip), vehicle: saline 101 % of control | dose: 200.0 mg/kg/injection, schedule: Q04DX003 (ip), vehicle: saline 101 % of control
